Patent US5831026A, “Process for purifying factor VIII” (Pharmacia & Upjohn AB, priority 1994, dated 1998)
Read-outs that look alike come from different tables or passages of the source.

What was measured:
[1] = tested on: metal-dependent proteases; test: Protease assay with resorufin-labeled casein in harvest solution (conditioned medium); format: biochemical, Chinese Hamster; details: for Mean absorbance: 37° C., 2 h preincubation + 17 h, pH 7.5; for Mean absorbance corrected: blank subtracted
Method: The method chosen was a protease assay with casein which was resorufin-labeled. By treatment with proteases, resorufin-labeled peptides are released from the casein. The concentration of these resorufin-labeled peptides in the supernatant is a measure of the proteolytic activity present. The test sample was incubated at 37° C. for a period of time which was dependent upon the sample at issue. The absorption wave-length chosen was 574 run throughout the tests. […]
Preincubation of the conditioned medium with or without EDTA was conducted at 37° C. for 2 h. After the addition of substrate, further incubation was carried out for 17 h. The pH in the incubation mixture was 7.5.
Absorbance corrected, refers to the absorption after subtraction of the blank value.
Conditioned medium (containing human serum albumin) was clarified and imidazole subsequently added in an amount ranging from 3.6 mM up to 360 mM.
Conditioned medium (containing human serum albumin) was clarified and histidine subsequently added in an amount ranging from 0.14 mM to 13.6 mM.

[2] = tested on: metal-dependent proteases; details: 3 mM EDTA in washing and elution liquid, harvest solution no. 2
Method: The method chosen was a protease assay with casein which was resorufin-labeled. By treatment with proteases, resorufin-labeled peptides are released from the casein. The concentration of these resorufin-labeled peptides in the supernatant is a measure of the proteolytic activity present. The test sample was incubated at 37° C. for a period of time which was dependent upon the sample at issue. The absorption wave-length chosen was 574 run throughout the tests.
(§1) Conditioned mediums (containing human serum albumin) from two consecutive harvests, were clarified and buffered with NH4 Ac. Each resulting solution, with a pH of 6.8, was loaded onto a column containing SP SEPHAROSE® FF sold by Pharmacia AB of Uppsala, Sweden. This cation-exchange chromatography step was performed at about 8° C. After washing, factor VIII was eluted with a salt buffer containing 0.8M NaCl and 0.1M NH4 Ac. The washing liquid as well as the elution liquid contained 3 mM EDTA in the tests with harvest solution no. 2. Tests without EDTA present was carried out for comparison (harvest solution no. 1). […] The concentration of unbound Ca^2+ -ions was determined by an ion-selective electrode.

[3] = 3 mM EDTA in washing and elution liquid; harvest solution no. 2
Method: as §1

factor VIII = details: ambient temperature, vs zero-time value
Method: Conditioned mediums (containing human serum albumin) from four harvests being different from the previous Examples were clarified and buffered with NH4 Ac. Each resulting solution, with a pH of 6.8, was loaded onto a column containing SP SEPHAROSE® FF. This cation-exchange chromatography step was performed at about 8° C. After washing, factor VIII was eluted with a salt buffer containing 0.8M NaCl and 0.1M NH4 Ac. The washing liquid as well as the elution liquid contained 3 mM EDTA. Tests without EDTA present were carried out for comparison. The procoagulant activity of factor VIII was determined by use of a chromogenic substrate method, COATEST® Factor VIII kit (Chromogenix AB of Sweden) after storage at ambient temperature for up to 24 hours. The relative standard deviation (RSD) of the method is 7%.

## O=C(O)CN(CCN(CC(=O)O)CC(=O)O)CC(=O)O [EDTA, ethylenediamine tetraacetic acid]
[1]; 0.23 mM EDTA
  Protease activity (%): 43%
  Mean absorbance: 1835
  Mean absorbance corrected: 865
[1]; 1.2 mM EDTA
  Protease activity (%): 8%
  Mean absorbance: 1141
  Mean absorbance corrected: 171
[1]; 2.3 mM EDTA
  Protease activity (%): 5%
  Mean absorbance: 1069
  Mean absorbance corrected: 99
[1]; 11.5 mM EDTA
  Protease activity (%): 1%
  Mean absorbance: 994
  Mean absorbance corrected: 24
[1]; 23 mM EDTA
  Protease activity (%): -2%
  Mean absorbance: 933
  Mean absorbance corrected: -37
[2]; blank subtracted
  Mean absorbance corrected: 0.023
[2]; harvest no. 1 without EDTA = 100
  Protease activity (%): 8%
[2]; incubation 2 h
  Mean absorbance: 0.064
[3]
  Unbound Ca^2+ ions: 25 mM
Factor VIII; harvest solution 1, S-eluate storage 0 h
  Factor VIII activity (%) In preparation with 3 mM EDTA: 100%
Factor VIII; harvest solution 1, S-eluate storage 6 h
  Factor VIII activity (%) In preparation with 3 mM EDTA: 98%
Factor VIII; harvest solution 1, S-eluate storage 24 h
  Factor VIII activity (%) In preparation with 3 mM EDTA: 100%
Factor VIII; harvest solution 2, S-eluate storage 0 h
  Factor VIII activity (%) In preparation with 3 mM EDTA: 100%
Factor VIII; harvest solution 2, S-eluate storage 6 h
  Factor VIII activity (%) In preparation with 3 mM EDTA: 101%
Factor VIII; harvest solution 2, S-eluate storage 24 h
  Factor VIII activity (%) In preparation with 3 mM EDTA: 98%
Factor VIII; harvest solution 3, S-eluate storage 0 h
  Factor VIII activity (%) In preparation with 3 mM EDTA: 100%
Factor VIII; harvest solution 3, S-eluate storage 6 h
  Factor VIII activity (%) In preparation with 3 mM EDTA: 109%
Factor VIII; harvest solution 3, S-eluate storage 24 h
  Factor VIII activity (%) In preparation with 3 mM EDTA: 109%
Factor VIII; harvest solution 4, S-eluate storage 0 h
  Factor VIII activity (%) In preparation with 3 mM EDTA: 100%
Factor VIII; harvest solution 4, S-eluate storage 6 h
  Factor VIII activity (%) In preparation with 3 mM EDTA: 103%
Factor VIII; harvest solution 4, S-eluate storage 24 h
  Factor VIII activity (%) In preparation with 3 mM EDTA: 102%
